Numbered stars: 1 amine (or outer) side, 2 acyl side, 3 side chain; on linkers, the order of the positions; unused ones are H or OH. Square brackets hold non-standard residues; d marks the D form. Side chains are listed from the residue outwards. Ends that are not written are not given here. Peptide text beside a SMILES is read from it. * marks the point of attachment. Biotin = O=C1N[C@H]2[C@H](CS[C@H]2CCCCC(=O)*)N1; C18 diacid = O=C(O)CCCCCCCCCCCCCCCCC(=O)*; γGlu = O=C(O)[C@H](CCC(=O)[*:2])N[*:1]; αMeR = C[C@](N)(CCCNC(=N)N)C(=O)O; AEEA = NCCOCCOCC(=O)O; Aib = CC(C)(N)C(=O)O

For orientation: half-life means the time in which the quantity being followed falls by half. In general, AUC(0-inf) refers to total exposure, with the tail of the curve extrapolated. In general, Cmax refers to the maximum level reached in the sampled fluid or tissue.

The target of one series is T1, human GLP-1R (Homo sapiens, UniProt P43220).
T1 construct: host or cells: CHO-K1
T1 sequence (P43220 24-463): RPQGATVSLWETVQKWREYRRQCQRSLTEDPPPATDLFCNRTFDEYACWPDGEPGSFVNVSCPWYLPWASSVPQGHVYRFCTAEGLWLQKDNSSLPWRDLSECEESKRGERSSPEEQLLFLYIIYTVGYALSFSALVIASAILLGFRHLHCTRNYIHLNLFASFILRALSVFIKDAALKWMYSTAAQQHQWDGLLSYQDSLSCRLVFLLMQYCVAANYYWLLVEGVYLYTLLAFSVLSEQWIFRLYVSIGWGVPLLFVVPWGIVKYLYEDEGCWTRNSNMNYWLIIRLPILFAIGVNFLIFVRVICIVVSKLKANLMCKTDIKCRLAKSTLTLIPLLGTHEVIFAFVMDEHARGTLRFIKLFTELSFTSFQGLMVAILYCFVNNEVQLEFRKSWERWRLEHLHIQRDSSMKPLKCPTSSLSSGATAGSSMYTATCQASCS
The series is described as follows: cAMP assay (HitHunter cAMP) in GLP-1R-expressing CHO-K1 cells (GLP-1R+ cells). Format: cell-based. To be noted: Table 31. An outline of the steps: (§1)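 Luminescent cAMP read-out: after 30 min peptide stimulation at 37 °C in cAMP assay buffer, receptor-expressing CHO-K1 cells (seeded 7×10^3/well the night before) received antibody and detection reagents for 1 h, then Solution A for 3 h, at room temperature in the dark.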
(In general: Changes in cAMP serve as a functional read-out for many G protein-coupled receptors.)

Series [1] is described as follows: In vitro enzymatic stability against FaSSIF/P (pancreatin in FaSSIF, pH 6.5). The format is in vitro ADME. The conditions noted are these: simulated gi fluid, pH 6.5, Half-life (min). The procedure: This study was conducted to determine the enzymatic stability of SEQ ID NOs. 77, 86, 87, 89, 90, and 91 after biotinylation in artificial intestinal environment. The test samples were prepared by mixing stock solutions of peptide and pancreatin dissolved in FaSSIF solution (pH 6.5) in a weight ratio of 25:1. The test samples were incubated at 37° C. for 120 min. The sampling from test samples was proceeded at the predetermined time points (10, 30, 60, and 120 min) and stopped by 10% TFA solution.
Analytical HPLC was performed to determine the remaining amount on an ACQUITY Premier system (Waters, USA) with an ACQUITY CSH C18 column (Waters, USA) at 35° C. using 0.1% TFA in water and acetonitrile. The remaining amount was determined as a percentage of the peak area at the sampling time point relative to the peak area of the initial sample.
For the stability against FaSSIF/P, the test samples were prepared by mixing stock solutions of peptide and pancreatin dissolved in FaSSIF solution (pH 6.5) in a weight ratio of 19:1. The test samples were incubated at 37° C. for 120 min. The sampling from test samples was proceeded at the predetermined time points (10, 30, 60, and 120 min) and stopped by 10% TFA solution.

Series [2] in a line: Body weight loss in high fat diet (HFD) mice, 2 weeks. The format is in vivo. To be noted: 20 nmol/kg s.c. Q2D. The procedure: This study was conducted to confirm the body weight loss effect and select the peptides to be evaluated in high fat diet (HFD) treated mouse, which is widely used as experimental animal model in obesity and diabetes studies. SEQ ID NOs. The peptides were delivered at 0.02% PS80 in PBS and dosing volume was 10 mL/kg. Body weight changes, blood glucose, and food intake were monitored Q2D. Animals were fasted at least 4 hours prior to blood glucose measurement.

A further series addresses T2, human GCGR (Homo sapiens, UniProt P47871).
T2 construct: host or cells: CHO-K1
In words: cAMP assay (HitHunter cAMP) in GCGR-expressing CHO-K1 cells (GCGR+ cells). Format: cell-based. To be noted: Table 31. A digest of the protocol:
as §1

Another series concerns the target T3, human GIPR (Homo sapiens, UniProt P48546).
T3 construct: host or cells: CHO-K1
T3 sequence (P48546 22-466): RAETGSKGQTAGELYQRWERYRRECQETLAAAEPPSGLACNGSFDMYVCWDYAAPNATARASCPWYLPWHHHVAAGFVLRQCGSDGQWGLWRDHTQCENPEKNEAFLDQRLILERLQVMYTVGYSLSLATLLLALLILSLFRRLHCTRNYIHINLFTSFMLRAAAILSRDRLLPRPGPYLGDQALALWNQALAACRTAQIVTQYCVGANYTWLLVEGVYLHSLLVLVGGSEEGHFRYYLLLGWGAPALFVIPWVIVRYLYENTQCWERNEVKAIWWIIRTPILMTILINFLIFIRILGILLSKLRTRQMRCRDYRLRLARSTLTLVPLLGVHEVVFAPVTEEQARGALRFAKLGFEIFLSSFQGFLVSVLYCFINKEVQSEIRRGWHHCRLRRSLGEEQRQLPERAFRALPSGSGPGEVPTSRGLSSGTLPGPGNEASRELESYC
In words: cAMP assay (HitHunter cAMP) in GIPR-expressing CHO-K1 cells (GIPR+ cells). Format: cell-based. The conditions noted are these: Table 31. An outline of the steps: as §1

Series [3] is described as follows: Intestinal absorption / PK after intraduodenal administration of oral formulation in rats, serum LC-MS/MS. The conditions noted are these: rat, in vivo. The procedure:
This study was conducted to evaluate the intestinal absorption of peptides following enteral administration of oral pharmaceutical formulations. The pharmaceutical formulation was administered in a form of suspensions by intraduodenal (ID) injection in rats. SEQ ID_87, 89 and 90 was accurately weighed and dissolved in 10 mM PBS containing polysorbate 80 (pH 7.4, vehicle I). The mixture was vortexed for 5 min to get a clear solution. Then, 2.5 mL of vehicle was added to the mixture and vortexed for 30 min to get homogenous opaque suspension. The composition of Vehicle II was sodium chenodeoxycholate, and propyl gallate in polysorbate 80 in PBS. The animals were not fasted prior to dosing. 0.2˜ 0.4 mL of whole blood was taken from vein at each time point (0, 0.167, 0.5, 1, 2, 4, 8, 24, and 48 hrs after IV or ID administration). The collected whole blood was incubated at room temperature for 20 min and tubes were centrifugated at 13,000 rpm for 10 min at 4° C. The resulting serum 0.1˜ 0.2 mL was transferred into the tube and stored at −70° C. until analysis. The concentrations of peptides in serum were determined by LC-MS/MS analysis. PK parameters were analyzed by non-compartmental analysis using Phoenix WinNonlin 5.0.1. software (Pharsight Corporation, Mountain View, CA, USA).

Series [4] addresses T4, human GLP-1 receptor (GLP-1R), expressed on CHO-K1 cells (human, UniProt P43220 24-463). The series is described as follows: cell-based or functional assay.
Series [5] has as its target T5, human glucose-dependent insulinotropic polypeptide receptor (GIPR), expressed on CHO-K1 cells (human, UniProt P48546 22-466).
T5 sequence (looked up): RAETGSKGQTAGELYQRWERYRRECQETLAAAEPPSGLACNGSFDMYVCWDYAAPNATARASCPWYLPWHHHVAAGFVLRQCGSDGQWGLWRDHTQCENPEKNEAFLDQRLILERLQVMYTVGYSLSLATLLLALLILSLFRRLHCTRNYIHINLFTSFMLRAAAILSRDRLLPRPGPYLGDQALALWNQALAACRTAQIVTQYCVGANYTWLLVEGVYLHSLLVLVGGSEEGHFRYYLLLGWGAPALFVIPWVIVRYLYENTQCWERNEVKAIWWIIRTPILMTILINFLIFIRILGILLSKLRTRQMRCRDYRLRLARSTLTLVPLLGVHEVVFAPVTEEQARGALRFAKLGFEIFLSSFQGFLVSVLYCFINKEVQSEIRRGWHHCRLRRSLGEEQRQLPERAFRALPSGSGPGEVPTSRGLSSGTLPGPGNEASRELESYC
The series is described as follows: cell-based or functional assay.

Series [6] concerns the target T4, human GLP-1 receptor (GLP-1R), …. The series is described as follows: cell-based or functional assay. The source holds these as a separate data set.
Series [7] concerns the target T5, human glucose-dependent insulinotropic …. In words: cell-based or functional assay. The source holds these as a separate data set.
For series [8], the target named is human glucagon receptor (GCGR), expressed on CHO-K1 cells (human, UniProt P47871 26-477). The series is described as follows: cell-based or functional assay.
human glucagon receptor (GCGR), expressed on CHO-K1 cells, sequence (P47871 26-477): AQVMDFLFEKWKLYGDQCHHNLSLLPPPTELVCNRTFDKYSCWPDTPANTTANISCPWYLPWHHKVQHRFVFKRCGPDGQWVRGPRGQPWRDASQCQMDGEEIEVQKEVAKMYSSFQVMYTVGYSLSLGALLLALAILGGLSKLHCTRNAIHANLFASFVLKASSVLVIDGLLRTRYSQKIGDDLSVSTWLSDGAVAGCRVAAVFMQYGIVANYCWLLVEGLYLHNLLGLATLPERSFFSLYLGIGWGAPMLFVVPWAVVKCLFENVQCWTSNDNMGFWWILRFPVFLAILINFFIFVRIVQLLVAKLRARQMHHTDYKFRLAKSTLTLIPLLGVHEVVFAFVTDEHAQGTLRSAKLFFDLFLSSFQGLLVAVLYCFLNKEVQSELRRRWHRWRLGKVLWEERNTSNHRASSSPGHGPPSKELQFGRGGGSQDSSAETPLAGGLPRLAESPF

T2 sequence (P47871 26-477): as above

Take `CSCC[C@H](NC(=O)[C@H](CCCCNC(=O)CCCC[C@@H]1SC[C@@H]2NC(=O)N[C@@H]21)NC(=O)[C@H](CC(=O)O)NC(=O)[C@H](CC(C)C)NC(=O)[C@H](CC(C)C)NC(=O)[C@H](CCCCNC(=O)COCCOCCNC(=O)COCCOCCNC(=O)CC[C@H](NC(=O)CCCCCCCCCCCCCCCCC(=O)O)C(=O)O)NC(=O)[C@H](CO)NC(=O)[C@H](Cc1ccc(O)cc1)NC(=O)[C@H](CC(=O)O)NC(=O)[C@H](CO)NC(=O)[C@@H](NC(=O)[C@H](Cc1ccccc1)NC(=O)[C@@H](NC(=O)CNC(=O)[C@H](CCC(N)=O)NC(=O)C(C)(C)NC(=O)[C@@H](N)Cc1ccc(O)cc1)[C@@H](C)O)[C@@H](C)O)C(=O)N[C@@H](CCSC)C(=O)N[C@@H](CCC(N)=O)C(=O)N[C@@H](CCCNC(=N)N)C(=O)N[C@@H](CC(=O)O)C(=O)N[C@@H](Cc1ccccc1)C(=O)N[C@H](C(=O)N[C@@H](CCC(N)=O)C(=O)N[C@@H](Cc1c[nH]c2ccccc12)C(=O)N[C@@H](CC(C)C)C(=O)N[C@@H](CC(C)C)C(=O)N[C@@H](CCC(=O)O)C(=O)NCC(=O)NCC(=O)N1CCC[C@H]1C(=O)N[C@@H](CO)C(=O)N[C@@H](CO)C(=O)NCC(=O)N[C@@H](C)C(=O)N1CCC[C@H]1C(=O)N1CCC[C@H]1C(=O)N1CCC[C@H]1C(=O)N[C@@H](CO)C(N)=O)C(C)C` [compound 86] (H-Y[Aib]QGTFTSDYSK([AEEA-AEEA-γGlu-C18 diacid])LLDK(Biotin)MMQRDFVQWLLEGGPSSGAPPPS-NH2; N-terminus and C-terminus assumed): at human GLP-1R, the “Ratio vs. GLP-1R, GLP-1R” value was 100 and the “Relative % to native ligand, GLP-1R” value was found to be 90%. Besides, the half-life in series [1] is 25.4 min. The “body weight loss effect compared to SEQ ID NO. 77, in words” value in series [2] is recorded as “inferior”. For the same molecule, at human GCGR, the “Ratio vs. GLP-1R, GCGR” value is listed as 157 and the “Relative % to native ligand, GCGR” value worked out at 142%. For the same molecule, at human GIPR, the “Ratio vs. GLP-1R, GIPR” value is on record as 639 and the “Relative % to native ligand, GIPR” value is 575%.

On to `CSCC[C@H](NC(=O)[C@H](CCCCNC(=O)CCCC[C@@H]1SC[C@@H]2NC(=O)N[C@@H]21)NC(=O)[C@H](Cc1ccc(O)cc1)NC(=O)[C@H](CC(=O)O)NC(=O)[C@H](CC(C)C)NC(=O)[C@H](CC(C)C)NC(=O)[C@H](CCCCNC(=O)COCCOCCNC(=O)COCCOCCNC(=O)CC[C@H](NC(=O)CCCCCCCCCCCCCCCCC(=O)O)C(=O)O)NC(=O)[C@H](CO)NC(=O)[C@H](Cc1ccc(O)cc1)NC(=O)[C@H](CC(=O)O)NC(=O)[C@H](CO)NC(=O)[C@@H](NC(=O)[C@H](Cc1ccccc1)NC(=O)[C@@H](NC(=O)CNC(=O)[C@H](CCC(N)=O)NC(=O)C(C)(C)NC(=O)[C@@H](N)Cc1ccc(O)cc1)[C@@H](C)O)[C@@H](C)O)C(=O)N[C@@H](CCC(N)=O)C(=O)N[C@@H](CCCNC(=N)N)C(=O)N[C@@H](CC(=O)O)C(=O)N[C@@H](Cc1ccccc1)C(=O)N[C@H](C(=O)N[C@@H](CCC(N)=O)C(=O)N[C@@H](Cc1c[nH]c2ccccc12)C(=O)N[C@@H](CC(C)C)C(=O)N[C@@H](CC(C)C)C(=O)N[C@@H](CCC(=O)O)C(=O)NCC(=O)NCC(=O)N1CCC[C@H]1C(=O)N[C@@H](CO)C(=O)N[C@@H](CO)C(=O)NCC(=O)N[C@@H](C)C(=O)N1CCC[C@H]1C(=O)N1CCC[C@H]1C(=O)N1CCC[C@H]1C(=O)N[C@@H](CO)C(N)=O)C(C)C` [compound 87] (H-Y[Aib]QGTFTSDYSK([AEEA-AEEA-γGlu-C18 diacid])LLDYK(Biotin)MQRDFVQWLLEGGPSSGAPPPS-NH2; N-terminus and C-terminus assumed), for which, on human GLP-1R, the “Ratio vs. GLP-1R, GLP-1R” value amounted to 100 and the “Relative % to native ligand, GLP-1R” value worked out at 110%. This molecule had a half-life in series [1] of 16.4 min. In series [2], the “body weight loss effect compared to SEQ ID NO. 77, in words” value is recorded as “inferior”. Also, in series [3], the AUC(0-inf) worked out at 1860 ng·h/mL, the Cmax worked out at 290 ng/mL, the half-life is 370 min and the “time at which Cmax was reached” value came to 0.25 h. Also, on human GCGR, the “Ratio vs. GLP-1R, GCGR” value is recorded as 60 and the “Relative % to native ligand, GCGR” value turned out to be 66%. On human GIPR, the “Ratio vs. GLP-1R, GIPR” value is 281 and the “Relative % to native ligand, GIPR” value stood at 308%.

On to H[Aib]QGTFTSDYSKYLDYMMARDFVQWLIEGGPSSGAPPPSC [Peptide No. 5 (with C-terminal cysteine)], for which the “EC50 (nM), cAMP assay” value turned out to be 0.0605 nM in [4] and 13.2 nM in [5].

B1: SEQ ID NO. 110 (peptide)
peptide: Y[Aib]QGTFTSDYSK([AEEA-AEEA-γGlu-C20])YLDYMMQ[αMeR]DFVKWLLEGGPSSGAPPPS-NH2
modifications: not fully specified (residue 24); printed as YAibQGT FTSDY SK**YLD YMMQαR DFVB*W LLEGG PSSGA PPPS
With B1, the figures for the “Ratio vs. GLP-1R” value in series [6], in series [7] and in [8] were 100, 272 and 29, respectively. In addition, the “Relative % to native ligand” value came out at 39% in [6], 105% in series [7] and 11% in [8].
